The structures appear in SMILES notation.

27 compounds from US11407715B2, “Substituted indoline derivatives as dengue viral replication inhibitors” (JANSSEN PHARMACEUTICALS, INC., priority 2017, dated 2022) can be followed below.

One series relates to DENV-2 16681 strain. Nature of the series: microbe, parasite or virus in culture. It counts as cell-based, Dengue virus. The settings on record: for EC50: DENV-2 16681 eGFP, Vero cells, MOI 0.5, 3 days; for SI: SI=CC50/EC50, DENV-2 antiviral assay.
Another series in a line: in vitro. The settings on record: African green monkey.
The mark [1] stands for this setting: Dengue virus, DENV2, Vero, 72 h.

Consider `COc1cc(NC(C(=O)N2CCc3ccc(OC(F)(F)F)cc32)c2ccc(Cl)cc2)cc(OCCC2(C(=O)O)CC2)c1` (racemic) [Compound 3, 1-(2-(3-((1-(4-chlorophenyl)-2-oxo-2-(6-(trifluoromethoxy)indolin-1-yl)ethyl)amino)-5-methoxyphenoxy)ethyl)cyclopropane-1-carboxylic acid], for which the midpoint of the response in the series with DENV-2 16681 strain (setting [1]), the EC50, lay at 0.0005 µM. Moreover, the SI in the series on DENV-2 16681 strain came out at 17700. Moreover, the CC50 in the series “in vitro” turned out to be 10 µM.

`COc1cc(NC(C(=O)N2CCc3ccc(OC(F)(F)F)cc32)c2ccc(Cl)cc2)cc(OCC(C)CC(=O)O)c1` (racemic) [Compound 4, 4-(3-((1-(4-chlorophenyl)-2-oxo-2-(6-(trifluoromethoxy)indolin-1-yl)ethyl)amino)-5-methoxyphenoxy)-3-methylbutanoic acid]: the midpoint of the response in the series with DENV-2 16681 strain (setting [1]), the EC50, lay at 0.00014 µM. Besides, the SI in the series on DENV-2 16681 strain amounted to 73900. Moreover, the CC50 in “in vitro” is 10 µM.

In the case of `COc1cc(NC(C(=O)N2CCc3ccc(OC(F)(F)F)cc32)c2ccc(Cl)cc2)cc(OCC2(CC(=O)O)CC2)c1` (racemic) [Compound 5, 2-(1-((3-((1-(4-chlorophenyl)-2-oxo-2-(6-(trifluoromethoxy)indolin-1-yl)ethyl)amino)-5-methoxyphenoxy)methyl)cyclopropyl)acetic acid], in the series with DENV-2 16681 strain (setting [1]), the EC50 (usually the concentration giving half of the maximal effect) came out at 0.00092 µM. For the same compound, the SI with DENV-2 16681 strain came out at 11300. This compound also returned a CC50 in “in vitro” of 9.7 µM.

As to `COc1cc(NC(C(=O)N2CCc3ccc(OC(F)(F)F)cc32)c2ccc(Cl)cc2)cc(OCC23CC(C(=O)O)(C2)C3)c1` (racemic) [Compound 9, 3-((3-((1-(4-chlorophenyl)-2-oxo-2-(6-(trifluoro-methoxy)indolin-1-yl)ethyl)amino)-5-methoxyphenoxy)methyl)bicyclo[1.1.1]pentane-1-carboxylic acid], the EC50 in the series on DENV-2 16681 strain (setting [1]) stood at 0.0007 µM. The compound further came in with an SI with DENV-2 16681 strain of 14700. For the same compound, the CC50 in the series “in vitro” stood at 9.8 µM.

In the series with DENV-2 16681 strain (setting [1]), `COc1cc(NC(C(=O)N2CCc3ccc(OC(F)(F)F)cc32)c2ccc(Cl)cc2)cc(OCCC(=O)O)c1` (racemic) [Compound 12, 3-(3-((1-(4-chlorophenyl)-2-oxo-2-(6-(trifluoromethoxy)indolin-1-yl)ethyl)amino)-5-methoxyphenoxy)propanoic acid] had a half-maximal effective concentration (EC50) of 0.0011 µM. The SI in the series with DENV-2 16681 strain is 9440. This compound had a CC50 in the series “in vitro” of 11 µM.

`COc1cc(NC(C(=O)N2CCc3ccc(OC(F)(F)F)cc32)c2ccc(Cl)cc2)cc(OCCCCC(=O)O)c1` (racemic) [Compound 13, 5-(3-((1-(4-chlorophenyl)-2-oxo-2-(6-(trifluoromethoxy)-indolin-1-yl)ethyl)amino)-5-methoxyphenoxy)pentanoic acid] came in with an EC50 in the series on DENV-2 16681 strain (setting [1]) of 0.00025 µM. The SI with DENV-2 16681 strain is on record as 38100. The compound also returned a CC50 in the series “in vitro” of 12 µM.

For the compound `COc1cc(CCCCC(=O)O)cc(NC(C(=O)N2CCc3ccc(OC(F)(F)F)cc32)c2ccc(Cl)cc2)c1` (racemic) [Compound 14, 5-(3-((1-(4-chlorophenyl)-2-oxo-2-(6-(trifluoromethoxy)indolin-1-yl)ethyl)amino)-5-methoxyphenyl)pentanoic acid], the EC50 in the series with DENV-2 16681 strain (setting [1]) was found to be 0.00023 µM. The SI in the series with DENV-2 16681 strain stood at 50200. The CC50 in the series “in vitro” is 9.6 µM.

For the compound `COc1cc(CCCC(=O)O)cc(NC(C(=O)N2CCc3ccc(OC(F)(F)F)cc32)c2ccc(Cl)cc2)c1` (racemic) [Compound 15, 4-(3-((1-(4-chlorophenyl)-2-oxo-2-(6-(trifluoromethoxy)indolin-1-yl)ethyl)amino)-5-methoxyphenyl)butanoic acid], in the series with DENV-2 16681 strain (setting [1]), the concentration for a half-maximal effect (EC50) came to 0.00042 µM. The compound also registered an SI in the series on DENV-2 16681 strain of 25500. Moreover, in the series “in vitro”, the CC50 is 8.3 µM.

In turn, `COc1cc(COCCC(=O)O)cc(NC(C(=O)N2CCc3ccc(OC(F)(F)F)cc32)c2ccc(Cl)cc2)c1` (racemic) [Compound 16, 3-((3-((1-(4-chlorophenyl)-2-oxo-2-(6-(trifluoromethoxy)indolin-1-yl)ethyl)amino)-5-methoxybenzyl)oxy)propanoic acid] yielded a concentration for a half-maximal effect (EC50) in the series with DENV-2 16681 strain (setting [1]) of 0.00033 µM. This compound came in with an SI in the series on DENV-2 16681 strain of 56100. Besides, the CC50 in the series “in vitro” turned out to be 16 µM.

With `COc1cc(NC(C(=O)N2CCc3ccc(OC(F)(F)F)cc32)c2ccc(Cl)cc2OC)cc(OCCC(C)C(=O)O)c1` (racemic) [Compound 17, 4-(3-((1-(4-chloro-2-methoxyphenyl)-2-oxo-2-(6-(trifluoromethoxy)indolin-1-yl)ethyl)amino)-5-methoxyphenoxy)-2-methylbutanoic acid], in the series with DENV-2 16681 strain (setting [1]), the EC50 came to 0.00018 µM. Also, the SI in the series with DENV-2 16681 strain stood at 100043. In the series “in vitro”, the CC50 amounted to 13 µM.

In turn, `COc1cc(NC(C(=O)N2CCc3ccc(OC(F)(F)F)cc32)c2ccc(Cl)cc2OC)cc(OCCC(C)(C)C(=O)O)c1` (racemic) [Compound 18, 4-(3-((1-(4-chloro-2-methoxyphenyl)-2-oxo-2-(6-(trifluoromethoxy)indolin-1-yl)ethyl)amino)-5-methoxyphenoxy)-2,2-dimethylbutanoic acid] displayed an EC50 in the series with DENV-2 16681 strain (setting [1]) of 0.00049 µM. Besides, the SI with DENV-2 16681 strain stood at 26100. The CC50 in the series “in vitro” came to 11 µM.

Consider `COc1cc(NC(C(=O)N2CCc3cc(OC)c(C(F)(F)F)cc32)c2ccc(Cl)cc2)cc(OCCC(C)(C)C(=O)O)c1` (racemic) [Compound 21, 4-(3-((1-(4-chlorophenyl)-2-(5-methoxy-6-(trifluoromethyl)indolin-1-yl)-2-oxoethyl)amino)-5-methoxyphenoxy)-2,2-dimethylbutanoic acid], for which, in the series on DENV-2 16681 strain (setting [1]), a half-maximal effect (EC50) was put at 0.0011 µM. This compound also returned an SI in the series on DENV-2 16681 strain of 11000. Moreover, the CC50 in the series “in vitro” is 15 µM.

In the series on DENV-2 16681 strain, `COc1cc(NC(C(=O)N2CCc3ccc(OC(F)(F)F)cc32)c2ccc(Cl)cc2)cc(OCC(C)CC(=O)O)c1` (single isomer, unassigned) [Compound 4A] showed an EC50 of 0.0029 µM and an SI of 3090. In the series “in vitro”, this compound gave a CC50 of 9 µM.

In the case of `COc1cc(NC(C(=O)N2CCc3ccc(OC(F)(F)F)cc32)c2ccc(Cl)cc2)cc(OC23CC(C(=O)O)(C2)C3)c1` (single isomer, unassigned) [Compound 9A], in the series on DENV-2 16681 strain, a half-maximal response (EC50) required 0.09 µM and the SI is given as 125. Moreover, in the series “in vitro”, the CC50 worked out at 11 µM.

In the series on DENV-2 16681 strain, `COc1cc(NC(C(=O)N2CCc3ccc(OC(F)(F)F)cc32)c2ccc(Cl)cc2)cc(OCCC(=O)O)c1` (single isomer, unassigned) [Compound 12A] registered a concentration giving a half-maximal response (EC50) of 0.038 µM and an SI of 267. In addition, the CC50 in “in vitro” turned out to be 10 µM.

For the compound `COc1cc(NC(C(=O)N2CCc3ccc(OC(F)(F)F)cc32)c2ccc(Cl)cc2)cc(OCCCCC(=O)O)c1` (single isomer, unassigned) [Compound 13A], in the series on DENV-2 16681 strain, the EC50 stood at 0.0014 µM and the SI was found to be 5720. In addition, in “in vitro”, the CC50 is 9.1 µM.

In the series with DENV-2 16681 strain, `COc1cc(CCCC(=O)O)cc(NC(C(=O)N2CCc3ccc(OC(F)(F)F)cc32)c2ccc(Cl)cc2)c1` (single isomer, unassigned) [Compound 15A] yielded a half-maximal effective concentration (EC50) of 0.049 µM and an SI of 171. Moreover, the CC50 in the series “in vitro” is 8.4 µM.

On to `COc1cc(NC(C(=O)N2CCc3ccc(OC(F)(F)F)cc32)c2ccc(Cl)cc2OC)cc(OCCC(C)C(=O)O)c1` (single isomer, unassigned) [Compound 17A], for which, in the series on DENV-2 16681 strain, the response was half-maximal at 0.076 µM (EC50) and the SI is given as 147. Moreover, the CC50 in “in vitro” was 11 µM.

Consider `COc1cc(NC(C(=O)N2CCc3ccc(OC(F)(F)F)cc32)c2ccc(Cl)cc2OC)cc(OCCC(C)(C)C(=O)O)c1` (single isomer, unassigned) [Compound 18A], for which, in the series on DENV-2 16681 strain, the EC50 was found to be 0.0099 µM and the SI was determined as 1160. Also, the CC50 in the series “in vitro” was found to be 12 µM.

With `COc1cc(NC(C(=O)N2CCc3cc(OC)c(C(F)(F)F)cc32)c2ccc(Cl)cc2)cc(OCCC(C)C(=O)O)c1` (single isomer, unassigned) [Compound 20A], in the series on DENV-2 16681 strain, the 50% effective concentration (EC50) was found to be 0.44 µM and the SI worked out at 27. For the same compound, the CC50 in the series “in vitro” came to 12 µM.

As to `COc1cc(NC(C(=O)N2CCc3cc(OC)c(C(F)(F)F)cc32)c2ccc(Cl)cc2)cc(OCCC(C)(C)C(=O)O)c1` (single isomer, unassigned) [Compound 21A], in the series on DENV-2 16681 strain, the EC50 came out at 0.016 µM and the SI was 687. Moreover, the CC50 in the series “in vitro” is 11 µM.

For `COc1cc(NC(C(=O)N2CCc3cc(F)c(OC(F)(F)F)cc32)c2ccc(Cl)cc2)cc(OCC2CC2C(=O)O)c1` (single isomer, unassigned) [Compound 26A, (1R*,2R*)-2-((3-((1-(4-chlorophenyl)-2-(5-fluoro-6-(trifluoromethoxy)indolin-1-yl)-2-oxoethyl)amino)-5-methoxyphenoxy)methyl)-cyclopropanecarboxylic Acid], in the series with DENV-2 16681 strain, the EC50 was 0.0001 µM and the SI is listed as greater than 12200. The same compound had a CC50 in the series “in vitro” of 14 µM.

For `COc1cc(NC2CC(C(=O)O)C2)cc(NC(C(=O)N2CCc3ccc(OC(F)(F)F)cc32)c2ccc(Cl)cc2)c1` (single isomer, unassigned) [Compound 33A], in the series with DENV-2 16681 strain, the 50% effective concentration (EC50) was found to be 0.013 µM and the SI was determined as 1110. Also, the CC50 in the series “in vitro” is 17 µM.

In the series on DENV-2 16681 strain, `COc1cc(NC(C(=O)N2CCc3ccc(OC(F)(F)F)cc32)c2ccc(Cl)cc2)cc(OCC2CC2C(=O)O)c1` (stereo not drawn) [Compound 6AA] displayed an EC50 of 0.00074 µM and an SI of 8870. In “in vitro”, this compound yielded a CC50 of 8.3 µM.

In the series on DENV-2 16681 strain, `COc1cc(NC(C(=O)N2CCc3ccc(OC(F)(F)F)cc32)c2ccc(Cl)cc2)cc(OC2CC(C(=O)O)C2)c1` (stereo not drawn) [Compound 7] gave an EC50 of 0.00049 µM and an SI of 14600. In “in vitro”, this compound displayed a CC50 of 12 µM.

On to `COc1cc(NC(C(=O)N2CCc3ccc(OC(F)(F)F)cc32)c2ccc(Cl)cc2)cc(OCC2CC(C(=O)O)C2)c1` (stereo not drawn) [Compound 10], for which, in the series with DENV-2 16681 strain, the midpoint of the response, the EC50, lay at 0.00027 µM and the SI amounted to 44900. The compound also registered a CC50 in the series “in vitro” of 12 µM.

For the compound `COc1cc(NC(C(=O)N2CCc3ccc(OC(F)(F)F)cc32)c2ccc(Cl)cc2OC)cc(OCC2CC2C(=O)O)c1` (stereo not drawn) [Compound 19AA], in the series with DENV-2 16681 strain, the EC50 was 0.01 µM and the SI amounted to 1030. In addition, the CC50 in the series “in vitro” stood at 11 µM.
